Assay results reported in US20260062443A1 (ALEXION PHARMACEUTICALS, INC., priority 2022, published 2026).

The molecules below were run against T1, Human complement C1s enzyme (Homo sapiens, UniProt P09871) (assay: Human C1s enzyme assay). Conditions: human complement C1s enzyme 1.16 nM, substrate Z-L-Lys-SBzl 100 μM, 5 min preincubation; read-out: IC50 (Stars), C1s Inhibiting Activity.
T1 sequence (P09871 438-688 limits assumed): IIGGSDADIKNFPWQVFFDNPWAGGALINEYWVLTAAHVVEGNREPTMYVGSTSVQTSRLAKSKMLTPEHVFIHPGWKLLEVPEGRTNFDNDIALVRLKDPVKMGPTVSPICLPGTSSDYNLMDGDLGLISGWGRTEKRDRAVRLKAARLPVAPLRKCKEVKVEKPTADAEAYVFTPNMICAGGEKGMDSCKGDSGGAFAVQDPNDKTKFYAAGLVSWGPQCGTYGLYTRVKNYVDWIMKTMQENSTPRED
T1 sequence (P09871 16-437 partner limits assumed): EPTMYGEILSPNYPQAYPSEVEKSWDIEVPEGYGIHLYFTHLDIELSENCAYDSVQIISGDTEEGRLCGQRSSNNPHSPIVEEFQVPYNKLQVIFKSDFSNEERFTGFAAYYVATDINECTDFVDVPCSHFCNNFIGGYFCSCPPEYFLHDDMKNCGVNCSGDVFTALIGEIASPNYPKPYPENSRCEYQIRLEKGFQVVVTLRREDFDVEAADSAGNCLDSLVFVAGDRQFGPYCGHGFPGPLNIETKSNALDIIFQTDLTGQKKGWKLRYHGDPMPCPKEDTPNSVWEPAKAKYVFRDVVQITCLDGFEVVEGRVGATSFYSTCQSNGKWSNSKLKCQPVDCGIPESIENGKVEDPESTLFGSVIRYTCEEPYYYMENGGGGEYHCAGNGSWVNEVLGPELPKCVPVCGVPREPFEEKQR
Type: biochemical
In short: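 Serum-purified human C1s (1.16 nM final) preincubated 5 min at room temperature with compound in 50 mM Tris, 1 M NaCl, pH 7.5. Z-L-Lys-SBzl and DTNB added at 100 μM each; A405 followed every 30 s for 30 min, and IC50 obtained by nonlinear regression of reaction rates.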

Compound | IC50
C[C@@]12C[C@@H]1N(C(=O)CN1Cc3ccc(Oc4ccccc4)cc3C1=O)[C@H](C(=O)NCc1cc3cnccc3[nH]1)C2 [Compound 156, (1S,3S,5S)-N-((1H-pyrrolo[3,2-c]pyridin-2-yl)methyl)-5-methyl-2-(2-(1-oxo-6-phenoxyisoindolin-2-yl)acetyl)-2-azabicyclo[3.1.0]hexane-3-carboxamide] | 100 to 1000 nM
C[C@@H](NC(=O)[C@@H]1C[C@@H](S(=O)(=O)C2CC2)CN1C(=O)CNC(=O)c1ccc2c(c1)Oc1ccccc1S2)c1cc2cnccc2[nH]1 [Compound 174, (2S,4R)-N-((R)-1-(1H-pyrrolo[3,2-c]pyridin-2-yl)ethyl)-4-(cyclopropylsulfonyl)-1-((phenoxathiine-3-carbonyl)glycyl)pyrrolidine-2-carboxamide] | < 100 nM
C[C@@H](NC(=O)[C@@H]1C[C@](F)(CF)CN1C(=O)CNC(=O)c1ccc2c(c1)Oc1ccccc1S2)c1cc2cnccc2[nH]1 [Compound 164, (2S,4R)-N-((R)-1-(1H-pyrrolo[3,2-c]pyridin-2-yl)ethyl)-4-fluoro-4-(fluoromethyl)-1-((phenoxathiine-3-carbonyl)glycyl)pyrrolidine-2-carboxamide] | < 100 nM
C[C@@H](NC(=O)[C@@H]1C[C@@H](OC(F)F)CN1C(=O)CNC(=O)c1ccc(Oc2ccc(F)cc2)cc1)c1cc2cnccc2s1 [Compound 205, (2S,4R)-4-(difluoromethoxy)-1-((4-(4-fluorophenoxy)benzoyl)glycyl)-N-((R)-1-(thieno[3,2-c]pyridin-2-yl)ethyl)pyrrolidine-2-carboxamide] | 100 to 1000 nM
C[C@@H](NC(=O)[C@@H]1C[C@@H](OC(F)F)CN1C(=O)CNC(=O)c1ccc(Oc2ccccc2)cc1)c1cc2cnccc2[nH]1 [Compound 39, (2S,4R)-N-((R)-1-(1H-pyrrolo[3,2-c]pyridin-2-yl)ethyl)-4-(difluoromethoxy)-1-((4-phenoxybenzoyl)glycyl)pyrrolidine-2-carboxamide] | < 100 nM
O=C(NCC(=O)N1C[C@H](OC(F)F)C[C@H]1C(=O)N[C@H](CO)c1cc2cnccc2[nH]1)c1ccc2c(c1)-c1ccccc1C2(F)F [Compound 103, (2S,4R)-1-((9,9-difluoro-9H-fluorene-3-carbonyl)glycyl)-4-(difluoromethoxy)-N-((S)-2-hydroxy-1-(1H-pyrrolo[3,2-c]pyridin-2-yl)ethyl) pyrrolidine-2-carboxamide] | 100 to 1000 nM
C[C@@H](NC(=O)[C@@H]1CC2(CN1C(=O)CNC(=O)c1ccc(-c3ccc(F)cc3F)cc1)OCCO2)c1cc2cnccc2[nH]1 [Compound 68, (S)-N-((R)-1-(1H-pyrrolo[3,2-c]pyridin-2-yl)ethyl)-7-((2′,4′-difluoro-[1,1′-biphenyl]-4-carbonyl)glycyl)-1,4-dioxa-7-azaspiro[4.4]nonane-8-carboxamide] | 100 to 1000 nM
C[C@H]1C[C@@H](C(=O)N[C@H](C)c2cc3cnccc3[nH]2)N(C(=O)CNC(=O)c2ccc3c(c2)-c2ccccc2C3(F)F)C1 [Compound 166, (2S,4S)-N-((R)-1-(1H-pyrrolo[3,2-c]pyridin-2-yl)ethyl)-1-((9,9-difluoro-9H-fluorene-3-carbonyl)glycyl)-4-methylpyrrolidine-2-carboxamide] | < 100 nM
O=C(NCC(=O)N1CC2(C[C@H]1C(=O)NCc1cc3ccccc3[nH]1)OCCO2)c1ccc2c(c1)Oc1ccccc1S2 [Compound 29, (S)-N-((1H-indol-2-yl)methyl)-7-((phenoxathiine-3-carbonyl)glycyl)-1,4-dioxa-7-azaspiro[4.4]nonane-8-carboxamide] | > 1000 nM
C[C@@]12C[C@@H]1N(C(=O)CNC(=O)CCCOc1ccccc1)[C@H](C(=O)N[C@H]1CCn3c(CN)ccc31)C2 [Compound 69, (1S,3S,5S)-N-((S)-5-(aminomethyl)-2,3-dihydro-1H-pyrrolizin-1-yl)-5-methyl-2-((4-phenoxybutanoyl)glycyl)-2-azabicyclo[3.1.0]hexane-3-carboxamide] | > 1000 nM
Cn1c(CNC(=O)[C@@H]2CC3(CN2C(=O)CNC(=O)c2ccc4c(c2)Oc2ccccc2S4)OCCO3)cc2cnccc21 [Compound 46, (S)-N-((1-methyl-1H-pyrrolo[3,2-c]pyridin-2-yl)methyl)-7-((phenoxathiine-3-carbonyl)glycyl)-1,4-dioxa-7-azaspiro[4.4]nonane-8-carboxamide] | > 1000 nM
C[C@@]12C[C@@H]1N(C(=O)CNC(=O)CCCOc1ccccc1)[C@H](C(=O)N[C@@H]1CCN(Cc3c[nH]cn3)C1=O)C2 [Compound 61, (1S,3S,5S)-N-((R)-1-((1H-imidazol-4-yl)methyl)-2-oxopyrrolidin-3-yl)-5-methyl-2-((4-phenoxybutanoyl)glycyl)-2-azabicyclo[3.1.0]hexane-3-carboxamide] | > 1000 nM
O=C(NCC(=O)N1C[C@H](OC(F)F)C[C@H]1C(=O)O)c1ccc(Oc2ccccc2)cc1 [Compound 118, (2S,4R)-4-(difluoromethoxy)-1-((4-phenoxybenzoyl)glycyl) pyrrolidine-2-carboxylic acid] | > 1000 nM

Second part, the molecule after the results:

IC50 | Compound
> 1000 nM | O=C(NCC(=O)N1C[C@H](OC(F)F)C[C@H]1C(=O)NCc1ccn2cnnc2c1)c1ccc2c(c1)Oc1ccccc1S2 [Compound 224, (2S,4R)-N-([1,2,4]triazolo[4,3-a]pyridin-7-ylmethyl)-4-(difluoromethoxy)-1-((phenoxathiine-3-carbonyl)glycyl)pyrrolidine-2-carboxamide]
> 1000 nM | O=C(NCC(=O)N1C[C@H](OC(F)F)C[C@H]1C(=O)NCc1ccc2[nH]cnc2n1)c1ccc2c(c1)Oc1ccccc1S2 [Compound 258, (2S,4R)-N-((1H-imidazo[4,5-b]pyridin-5-yl)methyl)-4-(difluoromethoxy)-1-((phenoxathiine-3-carbonyl)glycyl)pyrrolidine-2-carboxamide]
< 100 nM | C[C@@H](NC(=O)[C@@H]1CC2(CN1C(=O)CNC(=O)c1ccc3c(c1)Oc1ccccc1S3)OCCO2)c1cc2cnccc2s1 [Compound 206, (S)-7-((phenoxathiine-3-carbonyl)glycyl)-N-((R)-1-(thieno[3,2-c]pyridin-2-yl)ethyl)-1,4-dioxa-7-azaspiro[4.4]nonane-8-carboxamide]
> 1000 nM | O=C(NCC(=O)N1C[C@H](OC(F)F)C[C@H]1C(=O)NCc1ccc2scnc2c1)c1ccc2c(c1)Oc1ccccc1S2 [Compound 222, (2S,4R)-N-(benzo[d]thiazol-5-ylmethyl)-4-(difluoromethoxy)-1-((phenoxathiine-3-carbonyl)glycyl)pyrrolidine-2-carboxamide]
< 100 nM | Cc1cccc2c1oc1ccc(C(=O)NCC(=O)N3CCC[C@H]3C(=O)NCc3cc4cnccc4[nH]3)cc12 [Compound 336, (S)-N-((1H-pyrrolo[3,2-c]pyridin-2-yl)methyl)-1-((6-methyldibenzo[b,d]furan-2-carbonyl)glycyl)pyrrolidine-2-carboxamide]
< 100 nM | Cc1ccc(Oc2ccc(F)c(C(=O)NCC(=O)N3C[C@H](OC(F)F)C[C@H]3C(=O)NCc3cc4cnccc4[nH]3)c2)c(F)c1 [Compound 322, (2S,4R)-N-((1H-pyrrolo[3,2-c]pyridin-2-yl)methyl)-4-(difluoromethoxy)-1-((2-fluoro-5-(2-fluoro-4-methylphenoxy)benzoyl)glycyl) pyrrolidine-2-carboxamide]
< 100 nM | O=C(NCC(=O)N1CC2(C[C@H]1C(=O)NCc1cc3cnccc3[nH]1)OCCO2)c1ccc2sc3ccccc3c2c1 [Compound 212, (S)-N-((1H-pyrrolo[3,2-c]pyridin-2-yl)methyl)-7-((dibenzo[b,d]thiophene-2-carbonyl)glycyl)-1,4-dioxa-7-azaspiro[4.4]nonane-8-carboxamide]
< 100 nM | O=C(NCC(=O)N1C[C@H](OC(F)F)C[C@H]1C(=O)NCc1cc2c(s1)CCNC2)c1ccc2c(c1)Oc1ccccc1S2 [Compound 313, (2S,4R)-4-(difluoromethoxy)-1-((phenoxathiine-3-carbonyl)glycyl)-N-((4,5,6,7-tetrahydrothieno[3,2-c]pyridin-2-yl)methyl)pyrrolidine-2-carboxamide]
> 1000 nM | COc1ccc(C(=O)NCC(=O)N2C[C@H](OC(F)F)C[C@H]2C(=O)NCc2cc3cnccc3[nH]2)cc1 [Compound 384, (2S,4R)-N-((1H-pyrrolo[3,2-c]pyridin-2-yl)methyl)-4-(difluoromethoxy)-1-((4-methoxybenzoyl)glycyl) pyrrolidine-2-carboxamide]
< 100 nM | CCc1ccc(Oc2cc(F)cc(C(=O)NCC(=O)N3C[C@@](F)(Cn4ccnc4)C[C@H]3C(=O)NCc3cc4cnccc4[nH]3)c2)cc1 [Compound 372, (2S,4S)-4-((1H-imidazol-1-yl)methyl)-N-((1H-pyrrolo[3,2-c]pyridin-2-yl)methyl)-1-((3-(4-ethylphenoxy)-5-fluorobenzoyl)glycyl)-4-fluoropyrrolidine-2-carboxamide]
